According to EP3183252B1, “OXALATE SALT OF RUXOLITINIB” (ratiopharm GmbH, priority 2014, dated 2016):
Structures can show the parent of a compound that is named as a salt.

Experiments:
Type in all cases: physicochemical
[1] = pH-dependencies of solubility at 37°C; settings: for solubility / pH dependency of solubility (in words) / solubility at 1 h / solubility at 24 h / solubility at 0.5 h: 37°C; for pH dependency of solubility (in words): pH 4.5 and 6.8; for solubility at 1 h / solubility at 24 h: thermodynamic from solid
Excerpt: The intestinal tract obeys different pH ranges, which vary from pH 1 to 2 of the empty stomach, pH 3-5 for stomach filled with chyme, to pH 5-7.5 of the colon.

[2] = Storage stability: chemical purity by HPLC/UV; settings: for Chemical purity ([area-%] at λ=230 nm): 40°C/75% rh
Method: (§1) Samples were stored in closed and open containers at 25°C/60% rh and at 40°C/75% rh and analyzed after 4, 8 and 12 weeks.
The results of determination of the chemical purity during storage at 40°C/75% rh are summarized. Both salts remained chemically stable when stored under these conditions. Therefore, the analysis of samples, which were stored at 25°C/60% rh, was omitted.

[3] = Storage stability: solid state by XRPD analysis
Method: The sample was analyzed on a D8 Advance X-ray powder diffractometer (Bruker-AXS, Karlsruhe, Germany). The sample holder was rotated in a plane parallel to its surface at 20 rpm during the measurement. The raw data were analyzed with the program EVA (Bruker-AXS, Germany). The samples were layered onto a silicon specimen holder
as §1
The solid-state stability was investigated by XRPD analysis. The results of evaluation are summarized. Ruxolitinib phosphate and Ruxolitinib oxalate remained unchanged throughout the observation period.

[4] = Dynamic vapor sorption experiment (hygroscopicity)
Method: Vapour sorption experiments were performed in the instrument SPSx-1µ (Projekt Messtechnik, Ulm, Germany) at temperature of 25°C and the humidity cycles as shown below.
A dynamic vapor sorption experiment was performed with Ruxolitinib oxalate. At a constant temperature of 25°C, the substance was exposed to two cycles of varying relative humidity (rh) (40% → 0% →95% (75% r.h. kept constant for 48h) → 0% →40%). Figure 3a presents the relative weight change as a function of time and relative humidity and in […] changes are illustrated as a function of humidity.

[5] = pH 1.2, simulated gastric fluid, 0.1M HCl pH1.2, 1 h
[6] = pH 1.2, simulated gastric fluid, 0.1M HCl pH1.2, 24 h
[7] = 20mM sodium acetate pH 4.5, 0.5 h
[8] = aqueous buffer, 20mM sodium acetate pH 4.5, 1 h
[9] = aqueous buffer, 20mM sodium acetate pH 4.5, 24 h
[10] = aqueous buffer, 50mM KH2PO4 pH 6.8, 1 h
[11] = aqueous buffer, 50mM KH2PO4 pH 6.8, 24 h

| Structure (SMILES) | pH dependency of solubility (in words) [1] | Chemical purity ([area-%] at λ=230 nm) ([2]; closed, 4 weeks) | Chemical purity ([area-%] at λ=230 nm) ([2]; closed, 8 weeks) | Chemical purity ([area-%] at λ=230 nm) ([2]; closed, 12 weeks) | Chemical purity ([area-%] at λ=230 nm) ([2]; closed, t = 00 (= initial)) | Chemical purity ([area-%] at λ=230 nm) ([2]; open, 4 weeks) | Chemical purity ([area-%] at λ=230 nm) ([2]; open, 8 weeks) | Chemical purity ([area-%] at λ=230 nm) ([2]; open, 12 weeks) | Chemical purity ([area-%] at λ=230 nm) ([2]; open, t = 00 (= initial)) | solubility at 1 h [1, 5] | solubility at 24 h [1, 6] | solubility at 0.5 h [1, 7] | solubility at 0.5 h ([1]; 50mM KH2PO4 pH 6.8, 0.5 h) | solubility at 1 h [1, 8] | solubility at 24 h [1, 9] | solubility at 1 h [1, 10] | solubility at 24 h [1, 11] | solubility at 0.5 h ([1]; pH 1.2, 0.1M HCl pH1.2, 0.5 h) | further results |
| --- | --- | --- | --- | --- | --- | --- | --- | --- | --- | --- | --- | --- | --- | --- | --- | --- | --- | --- | --- |
| N#CC[C@H](C1CCCC1)n1cc(-c2ncnc3[nH]ccc23)cn1 (stereo in doubt) [Ruxolitinib sulfate] | less pH dependency | – | – | – | – | – | – | – | – | – | – | – | – | – | – | – | – | – | solubility ([1]; 20mM sodium acetate pH 4.5, 0.5 h, 30 min): 10.4 mg/mL; solubility ([1]; 20mM sodium acetate pH 4.5, 1 h, 60 min): 10.6 mg/mL; solubility ([1]; 20mM sodium acetate pH 4.5, 24 h, 1440 min): 9.5 mg/mL; solubility ([1]; 50mM KH2PO4 pH 6.8, 0.5 h, 30 min): 9.6 mg/mL; solubility ([1]; 50mM KH2PO4 pH 6.8, 1 h, 60 min): 9.8 mg/mL; solubility ([1]; 50mM KH2PO4 pH 6.8, 24 h, 1440 min): 8.3 mg/mL; solubility ([1]; 0.1M HCl pH1.2, 0.5 h, 30 min): 18.5 mg/mL; solubility ([1]; 0.1M HCl pH1.2, 1 h, 60 min): 18.5 mg/mL; solubility ([1]; 0.1M HCl pH1.2, 24 h, 1440 min): 16.7 mg/mL |
| N#CC[C@H](C1CCCC1)n1cc(-c2ncnc3[nH]ccc23)cn1 [Ruxolitinib phosphate] | – | 99,04% area-% | 99,20% area-% | 99,03% area-% | 99,05 area-% | 99,13% area-% | 99,28% area-% | 99,10% area-% | 99,05 area-% | 43.2 mg/mL | 44 mg/mL | – | – | – | – | – | – | – | solubility at 1 h ([1]; 20mM sodium acetate buffer, aqueous buffer, 20mM sodium acetate pH 4.5, 1 h): 6 mg/mL; solubility at 24 h ([1]; 20mM sodium acetate buffer, aqueous buffer, 20mM sodium acetate pH 4.5, 24 h): 6.8 mg/mL; solubility at 1 h ([1]; 50mM KH2PO4 buffer, aqueous buffer, 50mM KH2PO4 pH 6.8, 1 h): 4.7 mg/mL; solubility at 24 h ([1]; 50mM KH2PO4 buffer, aqueous buffer, 50mM KH2PO4 pH 6.8, 24 h): 5.7 mg/mL; solubility (in words) ([1]; higher pH points than pH 1.2): considerably less solubility; solubility (in words) ([1]; pH 1.2): good solubility; Evaluation of XRPD analysis ([3]; 25°C/60% rh, closed, 4 weeks): unchanged; Evaluation of XRPD analysis ([3]; 25°C/60% rh, closed, 8 weeks): unchanged; Evaluation of XRPD analysis ([3]; 25°C/60% rh, closed, 12 weeks): unchanged; Evaluation of XRPD analysis ([3]; 25°C/60% rh, open, 4 weeks): unchanged; Evaluation of XRPD analysis ([3]; 25°C/60% rh, open, 8 weeks): unchanged; Evaluation of XRPD analysis ([3]; 25°C/60% rh, open, 12 weeks): unchanged; Evaluation of XRPD analysis ([3]; 40°C/75% rh, closed, 4 weeks): unchanged; Evaluation of XRPD analysis ([3]; 40°C/75% rh, closed, 8 weeks): unchanged; Evaluation of XRPD analysis ([3]; 40°C/75% rh, closed, 12 weeks): unchanged; Evaluation of XRPD analysis ([3]; 40°C/75% rh, open, 4 weeks): unchanged; Evaluation of XRPD analysis ([3]; 40°C/75% rh, open, 8 weeks): unchanged; Evaluation of XRPD analysis ([3]; 40°C/75% rh, open, 12 weeks): unchanged |
| N#CC[C@H](C1CCCC1)n1cc(-c2ncnc3[nH]ccc23)cn1 [Ruxolitinib oxalate] | – | 100,00% area-% | 99,95% area-% | 99,90% area-% | 99,89 area-% | 100,00% area-% | 99,91% area-% | 99,85% area-% | 99,89 area-% | 56.3 mg/mL | 57.4 mg/mL | 24.1 mg/mL | 21.5 mg/mL | 27.7 mg/mL | 29.9 mg/mL | 23.5 mg/mL | 23.9 mg/mL | 57.8 mg/mL | stable upon storage for ([2]; 25°C and 60% relative humidity (RH)): at least 12 weeks; stable upon storage for ([2]; 40°C/75% RH): at least 12 weeks; solubility overall (in words) [1]: good solubility; solid state by XRPD analysis after the DVS experiment, compared to prior [4]: identical |
| N#CC[C@H](C1CCCC1)n1cc(-c2ncnc3[nH]ccc23)cn1 (stereo in doubt) [Ruxolitinib maleate] | distinct pH dependency | – | – | – | – | – | – | – | – | 12 mg/mL | 12.2 mg/mL | 2.8 mg/mL | 2.9 mg/mL | 3.2 mg/mL | 2.4 mg/mL | 2.9 mg/mL | 2.5 mg/mL | 12.5 mg/mL | – |
